This note sets out measurements from patent US20220289732A1, “HETEROCYCLIC WDR5 INHIBITORS AS ANTI-CANCER COMPOUNDS” (NOVARTIS AG, priority 2019, published 2022).

Some results are limits rather than exact numbers.

The target of one assay is WDR5 (Homo sapiens, UniProt P61964). The assay can be described thus: WDR5 HTRF binding assay. The following applies: read-out: (a) WDR5 HTRF Pep Val v.1[Inhibitor/IC50]Qualified AC50. The procedure, abridged: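 In this HTRF displacement format, biotinylated MLL1 WIN peptide (3762-3773, 20 nM) binds WDR5 (6 nM) in 25 mM Hepes pH 7.5 with 100 mM NaCl, 2 mM DTT and 0.1% BSA for 20 min at rt. Detection used streptavidin-APC/anti-His-Eu for 1 hr. IC50 came from dose-response fits of normalized signal; 15 nM biotin-PEG-His peptide served as counter assay.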
(In general: TR-FRET usually uses a lanthanide donor and a delayed reading to cut background.)

The target in assay [1] is wild type MLL1 four-member complex (MLL1-4C) (Homo sapiens, UniProt P61964). The assay can be described thus: MLL1 LC-MS assay (SAH production). Format: biochemical. As to conditions: read-out: (b) MLL LCMS Peptide Val.v.1 Qualified AC50. In short, it runs like this: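 SAH formation, measured by LC-MS/MS after a TFA quench containing d4-SAH, was normalised to no-compound and no-enzyme controls and fitted to a dose-response curve for IC50. Reactions ran 120 min at rt (pH 8.0 Tris buffer) with final 30 nM MLL1 four-member complex, 2.5 μM SAM and 10 μM biotinylated H3[1-21] peptide, after a 20-min enzyme/SAM-compound preincubation.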

For the next assay, the system named is MV4-11 cells. The assay can be described thus: MV4-11 6-day cell growth CTG (CellTiter-Glo) assay. The assay is classed as cell-based. The following applies: Homo sapiens, MV4-11, 144 h, 6 days, read-out: (c) MLL/WDR5 cell proliferation assay//MLL/WDR5 proliferation MV4:11 Qualified AC50. The procedure, abridged:
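IC50 comes from a dose-response fit of % inhibition relative to DMSO controls, with viable cells measured by CellTiter-Glo luminescence. Compounds were tested over 12 points (1:3, starting at 50 μM final) on MV4-11 cells plated at 300/well and grown 6 days.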
A general note: Cellular ATP, detected with luciferase, serves as a proxy for viable cell number.

`CCOc1cc([C@H](C)N2CCc3c(cc(CCN(C)CC)cc3-c3cc(N)ncc3C)C2=O)ncc1C#N` [Example 162, (S)-6-(1-(5-(2-amino-5-methylpyridin-4-yl)-7-(2-(ethyl(methyl)amino)ethyl)-1-oxo-3,4-dihydroisoquinolin-2(1H)-yl)ethyl)-4-ethoxynicotinonitrile]: at WDR5, the IC50 was < 10 nM. Moreover, the AC50 (in assay [1]; with MV4-11 cells) was 10 to 1000 nM each time.
Regarding `CNc1nccn1Cc1cc(CN2CCC23COC3)c2c(c1)C(=O)N([C@@H](C)c1cc(OC)c(F)cn1)CC2` [Example 17, (S)-5((6-oxa-1-azaspiro+3.3+heptan-1-yl)methyl)-2-(1-(5-fluoro-4-methoxypyridin-2-yl)ethyl)-7-((2-(methylamino)-1H-imidazol-1-yl)methyl)-3,4-dihydroisoquinolin-1(2H)-one], at WDR5, the IC50 lay in the range of 10 to 1000 nM. Moreover, the AC50 (in assay [1]; with MV4-11 cells) was 10 to 1000 nM throughout.
On to `CCOc1cc(C(C)N2CCc3c(cc(CCN(C)CC)cc3-c3cc(C)nn3C)C2=O)ncc1C#N` (stereo not drawn) [Example 205, 6-(1-(5-(1,3-dimethyl-1H-pyrazol-5-yl)-7-(2-(ethyl(methyl)amino)ethyl)-1-oxo-3,4-dihydroisoquinolin-2(1H)-yl)ethyl)-4-ethoxynicotinonitrile], for which the IC50 at WDR5 lay within 10 to 1000 nM. Moreover, the AC50 (in assay [1]; in the assay with MV4-11 cells) was 10 to 1000 nM throughout.
In the case of `CCOc1cc([C@H](C)N2CCc3c(cc(CCN(C)CC)cc3-c3cn(C)c(=O)cc3C)C2=O)ncc1C#N` [Example 131, (S)-6-(1-(5-(1,4-dimethyl-6-oxo-1,6-dihydropyridin-3-yl)-7-(2-(ethyl(methyl)amino)ethyl)-1-oxo-3,4-dihydroisoquinolin-2(1H)-yl)ethyl)-4 ethoxynicotinonitrile], the IC50 at WDR5 was < 10 nM. Besides, the AC50 (in assay [1]; with MV4-11 cells) was 10 to 1000 nM each time.
For the molecule `CCOc1cc([C@H](C)N2CCc3c(cc(Cn4cncc4C)cc3-c3cn(C)nc3C)C2=O)ncc1C#N` [Example 289], the IC50 at WDR5 is < 10 nM. Besides, the AC50 in assay [1] is 10 to 1000 nM; in the assay on MV4-11 cells, 1000 to 25000 nM.
`CNc1nccn1Cc1cc(CN(C)CC(F)F)c2c(c1)C(=O)N([C@@H](C)c1cc(OC)c(F)cn1)CC2` [Example 35, (S)-5-(((2,2-difluoroethyl)(methyl)amino)methyl)-2-(1-(5-fluoro-4-methoxypyridin-2-yl)ethyl)-7-((2-(methylamino)-1H-imidazol-1-yl)methyl)-3,4-dihydroisoquinolin-1(2H)-one]: the IC50 on WDR5 is 10 to 1000 nM. For the same molecule, the AC50 (in assay [1]; with MV4-11 cells) was 10 to 1000 nM throughout.
Take `CCOc1cc([C@H](C)N2CCc3c(cc(Cn4ccnc4C)cc3-c3cn(C)c(=O)cc3Cl)C2=O)ncc1C#N` [Example 292]: the IC50 on WDR5 was 10 to 1000 nM. Further, the AC50 (in assay [1]; in the assay on MV4-11 cells) was 10 to 1000 nM throughout.
Take `CCOc1cc([C@H](C)N2CCc3ccc(Cn4ccnc4NC)cc3C2=O)cnc1C#N` [Example 97, (S)-3-ethoxy-5-(1-(7-((2-(methylamino)-1H-imidazol-1-yl)methyl)-1-oxo-3,4-dihydroisoquinolin-2(1H)-yl)ethyl)picolinonitrile]: the IC50 on WDR5 lay in the range of 10 to 1000 nM. The AC50 (in assay [1]; in the assay on MV4-11 cells) was 10 to 1000 nM in each case.
With `CNc1nccn1Cc1cc(Br)c2ccn(Cc3ccc(F)c(OC)c3)c(=O)c2c1` [Example 99, 5-bromo-2-(4-fluoro-3-methoxybenzyl)-7-((2-(methylamino)-1H-imidazol-1-yl)methyl)isoquinolin-1(2H)-one], at WDR5, the IC50 lay in the range of 10 to 1000 nM. Also, the AC50 (in assay [1]; with MV4-11 cells) was 10 to 1000 nM in each case.
For `CNc1nccn1Cc1cc(-c2cc(CO)cnc2Cl)c2ccn([C@@H](C)c3cccc(OC)c3)c(=O)c2c1` [Example 102, (S)-5-(2-chloro-5-(hydroxymethyl)pyridin-3-yl)-2-(1-(3-methoxyphenyl)ethyl)-7-((2-(methylamino)-1H-imidazol-1-yl)methyl)isoquinolin-1(2H)-one], the IC50 at WDR5 was in the range of 10 to 1000 nM. In addition, the AC50 (in assay [1]; in the assay on MV4-11 cells) was 10 to 1000 nM each time.
For the molecule `CCOc1cc(CN2CCc3c(cc(Cn4ccnc4C)cc3-c3cn(C)c(=O)cc3C(F)(F)F)C2=O)ncc1C#N` [Example 297], the IC50 on WDR5 is < 10 nM. Also, the AC50 in assay [1] is 10 to 1000 nM; with MV4-11 cells, < 10 nM.
`CCOc1cc(CN2CCc3c(cc(CCN(C)CC)cc3-c3cc(N)ncc3C)C2=O)ncc1C#N` [Example 180, 6-((5-(2-amino-5-methylpyridin-4-yl)-7-(2-(ethyl(methyl)amino)ethyl)-1-oxo-3,4-dihydroisoquinolin-2(1H)-yl)rnethyl)-4-ethoxynicotinonitrile]: the IC50 on WDR5 is < 10 nM. In addition, the AC50 (in assay [1]; in the assay with MV4-11 cells) was 10 to 1000 nM in each case.
Consider `CCOc1cc([C@H](C)N2CCc3c(cc(CCN(C)CC)cc3-c3cn(C)nc3C)C2=O)ncc1F` [Example 145, (S)-5-(1,3-dimethyl-1H-pyrazol-4-yl)-2-(1-(4-ethoxy-5-fluoropyridin-2-yl)ethyl)-7-(2-(ethyl(methyl)amino)ethyl)-3,4-dihydroisoquinolin-1(2H)-one], for which the IC50 at WDR5 lay in the range of 10 to 1000 nM. Also, the AC50 (in assay [1]; in the assay on MV4-11 cells) was 10 to 1000 nM each time.
Take `CCOc1cc([C@H](C)N2CCc3c(cc(Cn4ccnc4C)cc3-c3cn(C)c(=O)cc3C(F)(F)F)C2=O)ncc1F` (single isomer, unassigned) [Example 278]: the IC50 at WDR5 is < 10 nM. Moreover, the AC50 in assay [1] was 10 to 1000 nM; with MV4-11 cells, < 10 nM.
Consider `CCOc1cc([C@H](C)N2CCc3c(cc(CCN(C)CC)cc3-c3cncn3C)C2=O)ncc1C#N` [Example 157, (S)-4-ethoxy-6-(1-(7-(2-(ethyl(methyl)amino)ethyl)-5-(1-methyl-1H-imidazol-5-yl)-1-oxo-3,4-dihydroisoquinolin-2(1H)-yl)ethyl)nicotinonitrile], for which, on WDR5, the IC50 was in the range of 10 to 1000 nM. Moreover, the AC50 in assay [1] was in the range of 10 to 1000 nM; with MV4-11 cells, 1000 to 25000 nM.
For `CCOc1cc([C@H](C)N2CCc3c(cc(CCN(C)CC)cc3C(O)C(C)C)C2=O)ncc1C#N` (stereo partly drawn) [Example 256, 4-ethoxy-6-((1S)-1-(7-(2-(ethyl(methyl)amino)ethyl)-5-(1-hydroxy-2-methylpropyl)-1-oxo-3,4-dihydroisoquinolin-2(1H)-yl)ethyl)nicotinonitrile], the IC50 on WDR5 fell in the range of 10 to 1000 nM. In addition, the AC50 (in assay [1]; in the assay with MV4-11 cells) was 10 to 1000 nM in each case.
Take `CCOc1cc([C@H](C)N2CCc3c(cc(CCN(C)CCOC)cc3-c3cn(C)c(=O)cc3Cl)C2=O)ncc1C#N` [Example 240]: the IC50 at WDR5 was < 10 nM. The AC50 (in assay [1]; in the assay with MV4-11 cells) was 10 to 1000 nM each time.
On to `CCOc1cc([C@H](C)N2CCc3c(CN4CCOCC4)cc(Cn4ccnc4NC)cc3C2=O)ncc1F` [Example 27, (S)-2-(1-(4-ethoxy-5-fluoropyridin-2-yl)ethyl)-7-((2-(methylamino)-1H-imidazol-1-yl)methyl)-5-(morpholinomethyl)-3,4-dihydroisoquinolin-1(2H)-one], for which the IC50 at WDR5 lay in the range of 10 to 1000 nM. Also, the AC50 (in assay [1]; in the assay on MV4-11 cells) was 10 to 1000 nM in each case.
